Columns and labels:
[1] = system: fetal rat intestinal cells isolated from E19 rat embryos; assay: GLP-1 secretion into culture medium from fetal rat intestinal cells; type: cell-based; conditions: FIG. 5-7; cultured cells treated with serial dilutions of compound
Procedure: FIG. 5 is a graph showing the concentration of GLP-1 secreted into culture medium as a function of the amount of Example compounds 14 and 69.8. The GLP-1 was secreted from fetal rat intestinal cells isolated from E19 rat embryos. The cultured cells were treated with serial dilutions of the indicated compounds, and GLP-1 secreted into the culture medium was determined.
FIG. 6 is a graph showing the concentration of GLP-1 secreted into culture medium as a function of the amount of Example compound 66.6. The GLP-1 was secreted from fetal rat intestinal cells isolated from E19 rat embryos. The cultured cells were treated with serial dilutions of the indicated compound, and GLP-1 secreted into the culture medium was determined.
FIG. 7 is a graph showing the concentration of GLP-1 secreted into culture medium as a function of the amount of Example compounds 14, 66.17, 77.3, and 83.1. The GLP-1 was secreted from fetal rat intestinal cells isolated from E19 rat embryos. The cultured cells were treated with serial dilutions of the indicated compounds, and GLP-1 secreted into the culture medium was determined.

GPR40 [2] = biological target: T1, GPR40 (Homo sapiens, UniProt O14842); assay: Aequorin luminescence in response to compounds; type: cell-based; parameters: expressed in transfected cells; conditions: FIG. 2; as a function of concentration; compared with fatty acid ligands
T1 sequence (O14842 whole entry): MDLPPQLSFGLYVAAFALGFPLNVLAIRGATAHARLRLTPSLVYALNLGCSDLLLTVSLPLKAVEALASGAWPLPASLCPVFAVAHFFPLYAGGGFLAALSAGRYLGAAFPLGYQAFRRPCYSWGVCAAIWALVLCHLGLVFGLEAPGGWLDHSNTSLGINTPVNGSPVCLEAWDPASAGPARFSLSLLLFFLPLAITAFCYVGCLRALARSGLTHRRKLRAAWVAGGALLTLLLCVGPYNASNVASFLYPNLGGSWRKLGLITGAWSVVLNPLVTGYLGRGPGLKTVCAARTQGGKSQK
From the text: FIG. 2 is a graph showing Aequorin luminescence in response to various compounds as a function of concentration.

GPR40 [3] = biological target: T1, GPR40; assay: Inositol phosphate accumulation in response to compounds; type: cell-based; parameters: expressed in transfected cells; conditions: FIG. 3; as a function of concentration; compared with Comparative Compound 1
From the text: FIG. 3 is a graph showing inositol phosphate accumulation in response to various compounds as a function of concentration.

GPR40 [4] = biological target: T1, GPR40; assay: Displacement of 3H-labeled Comparative Compound 1 by unlabeled compounds; type: binding; parameters: expressed in transfected cells; host or cells: membranes of A9 cells expressing GPR40; conditions: FIG. 1
GPR40 [5] = biological target: T1, GPR40; assay: Competition binding assay on A9 membranes expressing GPR40 with [3H] labeled Comparative Compound 1; parameters: expressed in transfected cells; host or cells: membranes of A9 cells expressing GPR40; conditions: 5 nM radioligand, 4 hours, room temperature
Procedure: Competition binding assays were performed on A9 membranes expressing GPR40.

GPR40 [6] = biological target: T1, GPR40; assay: Cell-based aequorin assay (CHO cells stably expressing GPR40 and aequorin); parameters: expressed in transfected cells; host or cells: CHO cells stably transfected with GPR40 and aequorin; conditions: for EC50: activation of human GPR40, CHO cells, 0.01% HSA
Outline: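 CHO cells stably co-expressing GPR40 and aequorin, loaded with coelenterazine (1 ug/mL, 2 h, room temperature) in H/HBSS with 20 mM Hepes and 0.01% fatty acid-free HSA. Serially diluted compounds added; luminescence recorded over 20 s. EC50 from dose-response of maximum relative light units.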

GPR40 [7] = biological target: T1, GPR40; assay: Inositol phosphate accumulation assay (A9_GPR40 cells); type: cell-based; parameters: expressed in transfected cells; host or cells: CHO cells stably transfected with GPR40 and aequorin; conditions: for agonist type in inositol phosphate accumulation assay: [3H] inositol accumulation after 1 hour, FIG. 3; for EC50: inositol phosphate assay, A9_GPR40 cells, 1 hour, read-out: IP3 EC50
Outline: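 A9 cells stably expressing GPR40 were labelled 16 h with 1 μCi/mL ^3H-inositol in inositol-free DMEM with dialysed FBS. Compounds in HBSS/10 mM LiCl with HSA were applied for 1 h at 37° C, then quenched with 20 mM formic acid. Accumulated [^3H] inositol phosphates were counted by SPA.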

| SMILES | concentration of GLP-1 secreted into culture medium [1] | Aequorin luminescence (GPR40 [2]) | inositol phosphate accumulation (GPR40 [3]) | displacement of 3H-labeled Comparative Compound 1 / total binding of 3H-labeled Comparative Compound 1 (GPR40 [4]) | displacement of bound [3H] labeled Comparative Compound 1 (GPR40 [5]) | effect on binding of the radioligand (Comparative Compound 1) to the receptor (GPR40 [5]) | EC50 (GPR40 [6]) [nM] | agonist type in aequorin assay (GPR40 [6]; compared with α-linolenic acid and docosahexaenoic acid, FIG. 2) | agonist type in inositol phosphate accumulation assay (GPR40 [7]) | EC50 (GPR40 [7]) [nM] |
| --- | --- | --- | --- | --- | --- | --- | --- | --- | --- | --- |
| COc1ccc(F)c(-c2ccc(COc3cccc([C@@H](CC(=O)O)C4CC4)c3)cc2C2=CCCC2(C)C)c1 (single isomer, unassigned) [Example 14, (3S)-3-Cyclopropyl-3-(3-(((2-(5,5-dimethyl-1-cyclopenten-1-yl)-2′-fluoro-5′-(methyloxy)-1,1′-biphenyl-4-yl)methyl)oxy)phenyl)propanoic acid or (3R)-3-cyclopropyl-3-(3-(((2-(5,5-dimethyl-1-cyclopenten-1-yl)-2′-fluoro-5′-(methyloxy)-1,1′-biphenyl-4-yl)methyl)oxy)phenyl)propanoic acid] | significantly stimulated GLP-1 secretion | equivalent to naturally occurring fatty acid ligands | greater than Comparative Compound 1 | enhanced the total binding | did not displace | enhanced the binding of the radioligand | 100 to 1000 | potent full agonists | potent full agonists | 10 to 100 |
| CCCCOc1cc(COc2cccc([C@@H](CC(=O)O)C3CC3)c2)ccc1-c1cc(OC)ccc1F (single isomer, unassigned) [Example 9, (3S)-3-(3-(((2-(Butyloxy)-2′-fluoro-5′-(methyloxy)-1,1′-biphenyl-4-yl)methyl)oxy)phenyl)-3-cyclopropylpropanoic acid or (3R)-3-(3-(((2-(butyloxy)-2′-fluoro-5′-(methyloxy)-1,1′-biphenyl-4-yl)methyl)oxy)phenyl)-3-cyclopropylpropanoic acid] | – | – | greater than Comparative Compound 1 | enhanced the total binding | did not displace | enhanced the binding of the radioligand | 100 to 1000 | – | potent full agonists | 100 to 1000 |

— patent US8030354B2, “Substituted biphenyl GPR40 modulators” (Amgen Inc., priority 2007, dated 2011)
